Laboratory results published in patent publication US11299496B2, “Ligands for alpha-7 nicotinic acetylcholine receptors and methods of treating neurological and inflammatory conditions” (Northeastern University, priority 2014, dated 2022).

Columns and labels:
[1] = molecular target: alpha-7 nAChRs (Homo sapiens, UniProt P36544); conditions: cited from earlier work
[2] = Solubility comparison; type: physicochemical
[3] = system: CCI mice; test: Chronic constriction injury (CCI) model, mechanical allodynia (von Frey); type: in vivo, mouse; conditions: for threshold for pain in the CCI model: dose of 1 mg/kg, FIG. 5B
Description: Mice were anesthetized with pentobarbital (45 mg/kg, i.p.). An incision was made just below the hipbone, parallel to the sciatic nerve. The right common sciatic nerve was exposed at the level proximal to the sciatic trifurcation, and a nerve segment 3-5 mm long was separated from surrounding connective tissue. Two loose ligatures with 6-0 silk suture were made around the nerve with a 1.0-1.5 mm interval between them. Muscles were closed with suture thread and the wound with wound clips. […] Any suture that remained after two weeks was removed from the healed surgical wound. Mechanical allodynia (von Frey test) was measured before and after drug injections.
The antiallodynic effects of test compounds were assessed in three experiments consisting of CCI mice and sham control mice. […] The anti-allodynic effects of alpha-7 nAChRs PAMs and ago-PAMs were tested (four doses and vehicle control, N=10 mice/group, administered i.p.) in the CCI model. Mice were assessed for mechanical allodynia 2 weeks after the CCI surgery. All these studies will be conducted in blinded manner. CCI and sham control mice received two conditioning sessions per day (vehicle in the morning and drug in the afternoon) over the course of 3 days, and were tested for a place preference on day 7 without any injections.
Pain behavioral data are presented as mean±S.E.M. (see FIGS. 5A and 5B). Statistical analysis was performed using the t-test or two-way analysis of variance test, followed by the post-hoc Bonferroni's test. All differences were considered significant at p<0.05, and significant differences are shown with asterisks in FIGS. 5A and 5B. ED50 values with 95% confidence limits (CL) were calculated by unweighted least-squares linear regression.

[4] = molecular target: T1, human alpha-7 nAChR (Homo sapiens, UniProt P36544); test: Two-electrode voltage clamp of alpha-7 nAChR expressed in Xenopus oocytes (net charge); type: cell-based; conditions: for Charge Alone: compound alone acting as an allosteric agonist; for Charge Alone / Charge +C: area under the curve of current vs. time; for Charge +C: compound together with choline or ACh, includes PAM and ago-PAM activity
T1 construct: expressed in transfected cells; host or cells: Xenopus laevis oocytes (cRNA injection)
Outline: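 Human α7 nAChR co-expressed with RIC-3 in Xenopus oocytes; two-electrode clamp at −60 mV, 12 s applications in Ringer's pH 7.3. Net charge integrated over 120 s from application, normalized to prior ACh controls; measured for compound alone and with choline or ACh; n≥4 oocytes.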

[5] = molecular target: T1, human alpha-7 nAChR; test: Electrophysiological evaluation of PAMs and ago-PAMs in Xenopus oocytes (direct activation, direct and primed potentiation); type: cell-based; conditions: for direct activation when applied alone / primed potentiation of subsequent responses to ACh applied alone: FIGS. 2A-2F; for peak efficacy in the presence of ACh: GAT154 vs GAT155
Excerpt: Electrophysiological evaluation in Xenopus oocytes was used to determine the potency and efficacy with which PAMs and ago-PAMs of the invention produce self-induced agonism and positive allosteric modulation of the orthosteric, agonist-induced activation of the alpha-7 nAChR. The ability of these compounds to increase the maximal channel influx and to enhance the activity of the receptor on its own as well as in presence of choline is denoted by Imax and EC50 respectively. The details of cDNA clones and RNA for injection was as published. Thakur et. al. 2013, J. Med. Chem. 2013 Nov. 14; 56(21):8943-7. doi: 10.1021/jm401267t). For experiments involving PAM and ago-PAM analogs, where standard levels of expression result in ion currents too large to be recorded in voltage clamp, experiments were typically conducted 1-3 days after RNA injection.
Two-electrode voltage clamp was conducted using OpusXpress 6000A (Molecular Devices, Union City, Calif.). Both the voltage and current electrodes were filled with 3 M KCl. Oocytes were voltage-clamped at −60 mV except when determining the effect of voltage on channel activation. The oocytes were bath-perfused with Ringer's solution (115 mM NaCl, 2.5 mM KCl, 1.8 mM CaCl2, 10 mM HEPES, and 1 μM atropine, pH 7.2) with a flow rate of 2 mL/min. To evaluate the effects of experimental compounds on ACh-evoked responses of alpha-7 nAChRs expressed in oocytes, the initial control responses were measured with two applications of ACh alone, before applications of experimental drugs alone or co-applications with ACh. The agonist solutions were applied from a 96-well plate via disposable tips, and the drugs were either co-applied with ACh by the OpusXpress pipette delivery system or bath-applied using the OpusXpress system to switch the running buffer. Drug applications were for 12 s followed by a 181 s washout period and usually alternated between controls and test solutions. After experimental drug applications, follow-up control applications of ACh were made to determine primed potentiation, desensitization or rundown of the receptors. Data were collected at 50 Hz, filtered at 20 Hz, analyzed by Clampfit 9.2 (Molecular Devices) and Excel (Microsoft, Redmond Wash.), and normalized to the averaged current of the two initial control responses. Data were expressed as mean±SEM from at least four oocytes for each experiment. For the concentration-response relationships, responses were normalized to the net charge of the most adjacent prior control.
A detailed comparative activity profile of select ago-PAMs/PAMs based on the structure of 4BP-TQS was obtained. […] They also functioned as direct PAMs, producing responses when co-applied with ACh. However, the primed potentiation of response to ACh alone was less after direct potentiation than after direct activation, due to residual induction of PAM-insensitive desensitization.

T1 sequence (P36544 23-502): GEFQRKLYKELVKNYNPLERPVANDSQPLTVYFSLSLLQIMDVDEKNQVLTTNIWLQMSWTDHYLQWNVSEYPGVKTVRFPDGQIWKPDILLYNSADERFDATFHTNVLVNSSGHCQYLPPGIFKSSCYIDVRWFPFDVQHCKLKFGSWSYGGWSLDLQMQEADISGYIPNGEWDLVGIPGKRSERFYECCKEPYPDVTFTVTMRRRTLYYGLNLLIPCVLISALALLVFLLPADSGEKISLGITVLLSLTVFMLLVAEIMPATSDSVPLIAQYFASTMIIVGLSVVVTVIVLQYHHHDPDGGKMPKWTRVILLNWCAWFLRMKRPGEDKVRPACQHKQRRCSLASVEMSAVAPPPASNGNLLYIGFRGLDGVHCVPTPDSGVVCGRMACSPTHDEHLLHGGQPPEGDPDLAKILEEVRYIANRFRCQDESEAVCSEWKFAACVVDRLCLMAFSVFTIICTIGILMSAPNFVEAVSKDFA
Chain of alpha-7 nAChRs (P36544 23-502): as above

NS(=O)(=O)c1ccc2c(c1)C1C=CCC1C(c1ccc(Br)cc1)N2 (racemic) [Compound 4BP-TQS, 4-(4-bromophenyl)-3a,4,5,9b-tetrahydro-3H-cyclopenta[c]quinoline-8-sulfonamide]
maximal response larger than ACh ([1]; agonist efficacy relative to ACh): 45 fold | EC50 lower than ACh ([1]; agonist potency relative to ACh): 8 fold

NS(=O)(=O)c1ccc2c(c1)[C@H]1C=CC[C@H]1[C@@H](c1ccc(Br)s1)N2 (stereo in doubt) [Compound 36, 4-(5-bromothiophen-2-yl)-3a,4,5,9b-tetrahydro-3H-cyclopenta[c]quinoline-8-sulfonamide]
solubility compared to GAT107 [2]: significantly better solubility compared to GAT107 | reversal of CCI effect ([3]; 1 mg/kg): completely reversed the effect | threshold for pain in the CCI model [3]: effective in increasing the threshold for pain | effectiveness relative to GAT155 in the CCI model ([3]; same dose of 1 mg/kg): twice as effective at every time point | effect on sham mice ([3]; sham control mice): without showing any significant effect on the sham mice | Charge Alone [4]: 48 | Charge +C [4]: 1145 | direct activation when applied alone [5]: directly activated human alpha-7 nAChR | primed potentiation of subsequent responses to ACh applied alone [5]: large primed potentiation | peak efficacy in the presence of ACh [5]: almost equal peak efficacy

NS(=O)(=O)c1ccc2c(c1)[C@H]1C=CC[C@H]1[C@@H](c1cc(Br)cs1)N2 (stereo in doubt) [Compound 37, 4-(4-bromothiophen-2-yl)-3a,4,5,9b-tetrahydro-3H-cyclopenta[c]quinoline-8-sulfonamide]
solubility compared to GAT107 [2]: significantly better solubility compared to GAT107 | threshold for pain in the CCI model [3]: effective in increasing the threshold for pain | Charge Alone [4]: 0 | Charge +C [4]: 163 | direct activation when applied alone [5]: negligible direct activation | primed potentiation of subsequent responses to ACh applied alone [5]: large primed potentiation | peak efficacy in the presence of ACh [5]: almost equal peak efficacy

CC(C)(C)CC(=O)Nc1ccc([C@H]2Nc3ccc(S(N)(=O)=O)cc3[C@H]3C=CC[C@H]32)cc1 (stereo in doubt) [Compound 64, 3,3-dimethyl-N-(4-(8-sulfamoyl-3a,4,5,9b-tetrahydro-3H-cyclopenta[c]quinolin-4-yl)phenyl)butanamide]
Charge Alone [4]: 597 | Charge +C [4]: 652 | effectiveness as ago-PAM compared to GAT154 [5]: almost equally effective as ago-PAMs | effectiveness as allosteric agonist compared to GAT154 [5]: more effective as allosteric agonists

CC(C)(C)NC(=O)Oc1ccc([C@H]2Nc3ccc(S(N)(=O)=O)cc3[C@H]3C=CC[C@H]32)cc1 (stereo in doubt) [Compound 65, 4-(8-sulfamoyl-3a,4,5,9b-tetrahydro-3H-cyclopenta[c]quinolin-4-yl)phenyl tert-butylcarbamate]
Charge Alone [4]: 332 | Charge +C [4]: 740 | effectiveness as ago-PAM compared to GAT154 [5]: almost equally effective as ago-PAMs | effectiveness as allosteric agonist compared to GAT154 [5]: more effective as allosteric agonists

CC(C)(C)OC(=O)Nc1ccc([C@H]2Nc3ccc(S(N)(=O)=O)cc3[C@H]3C=CC[C@H]32)cc1 [Compound 24]
Charge Alone [4]: 212 | Charge +C [4]: 580 | 'ago' component / ago-PAM activity ([4]; in words): increased ‘ago’ component | types of activity (direct activation, direct potentiation, primed potentiation) [5]: exhibited all three types of activities
